These results are taken from patent US20250171404A1, “PCNA INHIBITORS AND USES THEREOF” (CITY OF HOPE, priority 2022, published 2025).

The structures appear in SMILES notation.

Assay [1] concerns HTC-116. In words: Cell growth IC50, screening of AOH1160 analogs. Type of assay: cell-based. As to conditions: read-out: IC50 values.
The test system of assay [2] is MDA-MB-468. In words: Cell growth IC50, screening of AOH1160 analogs. It is filed as cell-based. The note with it: Homo sapiens, MDA-MB-468, read-out: IC50 values.
In assay [3] the test system is OVCAR8. In words: Cell growth IC50, screening of AOH1160 analogs. It is filed as cell-based. The note with it: Homo sapiens, OVCAR-8, read-out: IC50 values.
Assay [4] has as its system RKO. In words: Cell growth IC50, screening of AOH1160 analogs. It is filed as cell-based. As to conditions: Homo sapiens, read-out: IC50 values.
Assay [5] relates to HCT-116. Nature of the assay: Cell growth IC50, screening of AOH1160 analogs. Type of assay: cell-based. The note with it: Homo sapiens, HCT-116, read-out: IC50 values.
The subject of assay [6] is SH-SY5Y and SK-N-BE(2)c. Nature of the assay: Cell cycle analysis (PI, flow cytometry), cancer cells. The note with it: 500 nM. Type of assay: cell-based, human. As to the method: (§1) FIGS. 3A-3D. Therapeutic properties of AOH1996. FIG. 3A: Normal cells (7SM0032) or cancer cells (SH-SY5Y and SK-N-BE(2)c) cells were fixed, stained with PI, and analyzed by flow cytometry following treatment with 500 nM AOH1996 for the indicated time. FIG. 3B: SK-N-DZ neuroblastoma cells and nonmalignant 7SM0032 stem cells were incubated with 500 nM AOH1996 for 24 h. Then, after being fixed on slides, cell apoptosis were analyzed by a TUNEL assay. Left: TMR fluorophore attached to the free ends of DNA indicates cells undergoing apoptosis. DAPI stained nuclei also shown. Right: Average abundance ±S.D. of apoptotic 7SM0032 (black histogram) and SK-N-DZ (grey histogram) cells relative to the total number of cells are shown in 5 randomly selected fields. FIG. 3C: Human SK-N-DZ neuroblastoma cells were treated with or without the indicated concentrations of cisplatin in the absence or presence of 500 nM of AOH1996 for 18 hours. […] The relative number of colonies determined in triplicates for each treatment condition were averaged and graphed ±SDs (*, P<0.01). […] Cell growth was measured as the percentage of cell confluence by imaging every 6 h for a total of 48 h.
(§2) Cell Cycle Analysis. […] PI fluorescence intensity of the cells was measured by flow cytometry and the data was analyzed using the FlowJo program.
A general note: A flow cytometer gives signals particle by particle.

For assay [7], the system named is 7SM0032. Nature of the assay: Cell cycle analysis (PI, flow cytometry), nonmalignant cells. Type of assay: cell-based, human. The note with it: 500 nM; nonmalignant 7SM0032 cells. The protocol: as §1, §2
The subject of assay [8] is MDA-MB-468 xenograft tumors. Nature of the assay: Xenograft tumor model, breast cancer. Type of assay: in vivo, mice. As to conditions: 40 mg/kg twice daily, oral, vs vehicle. As to the method:
FIGS. 4A-4H. Pharmacokinetics and anti-tumor growth activity of AOH1996 in vivo. FIG. 4A: After oral administration, the plasma concentrations of AOH1996 from three male and three female ES1^e/SCID mice at the indicated time points were averaged and graphed ±S.D. The inset contains PK parameters determined by a standard noncompartmental method. FIG. 4B: A similar PK study of AOH1996 was performed in dogs. FIGS. 4C-4E: Mice bearing the xenograft tumors of neuroblastoma (FIG. 4C: SK-N-BE(2)c), breast cancer (FIG. 4D: MDA-MB-468), and small-cell lung cancer (FIG. 4E: H82) were given vehicle only (black) or 40 mg/kg of AOH1996 (grey) twice daily immediately after the first measurement. Tumor sizes were measured by a dial caliper each week. Tumor volumes (0.4×L×W^2) were averaged and graphed ±S.E. (*, P<0.01). FIG. 4F: Animal body weight was monitored throughout the studies as an indicator of toxicity. […] FIG. 4G: The levels of phosphor-Chk1 (pChk1) and γH2A.X in SK-N-BE(2)c derived tumor samples were analyzed by IHC. […] The p values determined by the Log-rank (Mantel-Cox) test between combination treatment and each of the control groups are p=0.0003 (Combination vs. NoRx), p=0.005 (Combination vs. AOH1996 alone), and p=0.024 (Combination vs. CPT-11 alone).
In vivo tumor model. […] Tumor size and animal weight were measured weekly. […]

What is called IC50 is the point on the concentration scale where inhibition reaches its midpoint. Take `COc1cccc(Oc2ccccc2NC(=O)CNC(=O)c2cccc3ccccc23)c1` [AOH1996, N-(2-((2-(3-methoxyphenoxy)phenyl)amino)-2-oxoethyl)-1-naphthamide]: the IC50 in assay [1] stood at 250 nM; in assay [2] it was 740 nM; in assay [3], 549 nM; in assay [4], 255 nM; in assay [5], 786 nM. Further, the “change in cell-cycle profile” value in assay [6] is listed as “G2/M and/or S phase arrest in cancer cells”; in assay [7], “does not significantly change the cell-cycle profiles”. Moreover, the tumor burden entry in assay [8] is on record as “significantly reduced tumor burden”.
